Test results published in paper PMC11268479, “Delineation of the complete reaction cycle of a natural Diels–Alderase” (Chemical Science, 2024).
Where “and” joins values, the source holds several entries; their conditions need not be identical. Identical values can stand only once. Like-named read-outs stand apart in the source and are kept apart here.

What was measured:
AbyU [1] = biological target: T1, AbyU (Micromonospora maris, UniProt Z9P124SIT8, F95Y, form not given); experiment: Steady-state kinetics of the AbyU catalysed conversion of 5 to 6 (Michaelis–Menten fit); format: biochemical, Micromonospora maris AB-18-032
T1 sequence (Z9P124SIT8 1-160 F95Y): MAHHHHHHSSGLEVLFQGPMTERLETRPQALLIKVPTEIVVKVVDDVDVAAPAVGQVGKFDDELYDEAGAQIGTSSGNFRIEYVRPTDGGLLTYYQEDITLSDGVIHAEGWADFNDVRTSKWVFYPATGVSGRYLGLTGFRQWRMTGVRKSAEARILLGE
Description: Fig. 5 Burst phase characterisation of the AbyU catalysed conversion of 5 to 6. (a) Example of the transient observed (blue) in the reaction of 54 μM 5 with 1 μM AbyU, shown on a logarithmic scale with a linear scale shown inset for comparison. The transient is fitted to eqn (3) (black line, see Fig. S9 ^† for fitting analysis). (b) The rate of turnover in each burst phase as a function of the concentration of 5. Data for kburst1 is fitted to a one-step binding model (eqn (4)) and kburst2 is fitted to a two-step binding model (eqn (5)). (c) Steady-state kinetics fitted to the Michaelis–Menten equation (eqn (S1) ^†). […] This is perhaps unsurprising, as the conformationally constricted product must by necessity dissociate from the ‘closed’ active site. Steady-state kinetics reveal the impact that product release has upon the overall rate. […] Stopped-Flow (SF) experiments were performed using a Hi-Tech Scientific KinetAsyst Stopped-Flow System spectrophotometer (TgK Scientific, Bradford on Avon, UK). […] This ensured a high number of readings in the first seconds of the experiment. […] The amplitude of the change in absorbance was converted to concentration using the following measured absorbance coefficient for substrate 5: ε325 nm = 13 200 M^−1 cm^−1 and the following measured absorbance coefficient for product 6: ε325 nm = 1085 M^−1 cm^−1. […]

AbyU [2] = biological target: T1, AbyU; experiment: Multiple turnover (burst phase) stopped-flow kinetics of the AbyU catalysed conversion of 5 to 6; format: biochemical, Micromonospora maris AB-18-032
Description: To formally identify the rate-limiting step in the AbyU catalysed cycloaddition reaction, a multiple turnover kinetics experiment was undertaken. The stopped-flow transients (Fig. 5a) reveal two distinguishable burst phases when fitted to eqn (3), a derivative of eqn (1), which incorporates a linear phase to account for multiple turnovers in the steady-state.3 [drawing 3]
When the data for kburst1 are fitted to eqn (4), kon and koff can be determined to be 0.88 ± 0.03 μM^−1 s^−1 and 3.4 ± 0.71 s^−1, for substrate binding and dissociation respectively, in this conformation.4 kburst1 = kburst1on[S] + kburst1off
The relationship between the slower burst phase, kburst2 and substrate concentration, in contrast, fits well to, and is highly representative of, a two-step binding interaction (eqn (5) (ref. [32])).5 kburst2 = 1/2(p − q)where:5.1 p = kburst2on1 × [S] + kburst2off1 + kburst2on2 + kburst2off25.2 [drawing 4] 5.3 r = kburst2on1 × [S] × kburst2on2 + kburst2off1 × kburst2off2 + kburst2on1 × [S] × kburst2off2
(§1) Stopped-Flow (SF) experiments were performed using a Hi-Tech Scientific KinetAsyst Stopped-Flow System spectrophotometer (TgK Scientific, Bradford on Avon, UK). Both syringe 1 and 2 were washed with ddH2O and SF buffer (18 mM Tris–HCl, 135 mM NaCl, 10% acetonitrile, pH 7.5). 10% acetonitrile was maintained in both syringes at all times to ensure solubility of the substrate. The stop-flow was zeroed and references were taken using SF buffer in each syringe for burst phase kinetics. Purified recombinant AbyU in SEC buffer (20 mM Tris–HCl, 150 mM NaCl, pH 7.5), was diluted to a final concentration of 800 μM AbyU in SF buffer. This solution of AbyU was placed in syringe 1 to obtain references for the single turnover experiments. For the multiple turnover experiments, AbyU was added to syringe 1 at a concentration of 2 μM (diluted in SF buffer). Likewise, substrate 5 was diluted in SF buffer to double the reaction concentration and placed in syringe 2. 50 μL from each syringe was injected into the mixing chamber and measurement immediately commenced. Reactions were observed using a logarithmic timebase over either 1000 s or 10 s. For the 1000 s experiments, the timeframe was split into 15 cycles, each with 200 points, each of which was distributed in a logarithmic manner. This ensured a high number of readings in the first seconds of the experiment. […] This was compounded by the weak affinity of substrate 5 for the plastic components in the SF system, rendering it impossible to precisely replicate the concentration of 5 in the reaction chamber over multiple syringes. To measure the uncatalysed rate of substrate cyclisation, the stop flow was zeroed and references were taken using SF buffer in both syringes. Varying concentrations of substrate 5 were added to syringe 2 and measurements were taken using a linear time base over 10 seconds. All reactions were performed at 20 °C.
Results were fitted using Graphpad Prism. Data obtained before 2 ms was discarded, reflecting the dead-time of the instrument. Data were fit to equations as outlined in the text. The 10 s single turnover kinetic data were fitted to two exponentials with a sloping baseline (eqn (3)). […] To circumvent this, the data between 3 s and 10 s were separately fitted to a straight line to determine the initial rate of k3. In order to fully analyse the change in the reaction rate with respect to the concentration of 5, 3–6 transients at each substrate concentration were taken and the rate and amplitude parameters derived from the fit appropriate for each transient (Fig. S4 and S9 ^†). The background rate of reaction (Fig. S11 ^†) was removed from the steady-state reaction and from the linear portion of k3. The other exponential phases occur too rapidly for the background rate of reaction to have an appreciable influence on the data. […]

[3] = Uncatalysed (spontaneous) cyclisation of substrate 5, stopped-flow; format: physicochemical; conditions: SF buffer, no enzyme, 10 s, 20 °C, pH 7.5, 10% acetonitrile
Description: Stopped-Flow (SF) experiments were performed using a Hi-Tech Scientific KinetAsyst Stopped-Flow System spectrophotometer (TgK Scientific, Bradford on Avon, UK). Both syringe 1 and 2 were washed with ddH2O and SF buffer (18 mM Tris–HCl, 135 mM NaCl, 10% acetonitrile, pH 7.5). 10% acetonitrile was maintained in both syringes at all times to ensure solubility of the substrate. The stop-flow was zeroed and references were taken using SF buffer in each syringe for burst phase kinetics. Purified recombinant AbyU in SEC buffer (20 mM Tris–HCl, 150 mM NaCl, pH 7.5), was diluted to a final concentration of 800 μM AbyU in SF buffer. […] This ensured a high number of readings in the first seconds of the experiment. […]
Results were fitted using Graphpad Prism. […] The amplitude of the change in absorbance was converted to concentration using the following measured absorbance coefficient for substrate 5: ε325 nm = 13 200 M^−1 cm^−1 and the following measured absorbance coefficient for product 6: ε325 nm = 1085 M^−1 cm^−1. […] Initial concentrations of substrate 5 were calculated from the absorbance at t = 0, to account for uncatalysed substrate turnover, and the tendency of the substrate to have a weak affinity with the plastic present in the stop-flow apparatus. […] The slope of the line was determined for each substrate concentration and averaged over 3–5 repeats.

[4] = biological target: AbyU (Micromonospora maris); experiment: Single turnover stopped-flow kinetics of the AbyU catalysed conversion of 5 to 6 (excess enzyme, absorbance 325 nm); format: biochemical, Micromonospora maris AB-18-032; conditions: single turnover, 10 s, 20 °C, pH 7.5, 10% acetonitrile, eqn (2); read-out: Ki from substrate inhibition fit of kobs2 vs [5] (binding affinity for slower reacting species)
AbyU (Micromonospora maris), sequence (Z9P124SIT8 1-160 F95Y): as above
Excerpt: (§2) To further investigate the AbyU catalysed reaction stopped-flow kinetic studies were undertaken employing substrate 5. […] This feature is lost upon cyclisation and thus constitutes a viable spectrophotometric probe to monitor the AbyU catalysed conversion of substrate 5 to product 6 (Fig. 1b). […] We assessed the quality of the fit from the plotted residuals.
(§3) As the concentration of 5 increases, a concomitant decrease in the rate constants kobs1 and kobs2 is observed. […] These different conformational populations cannot be individually resolved using ensemble kinetic measurements unless their rate constants differ by at least an order of magnitude, therefore, the observed rate constant reflects average behaviour. The relative equilibrium saturation constants observed for two different binding conformations can be obtained by examining the dependence of kobs2 on (Fig. 3b). From Fig. 3b, the data present as apparent substrate inhibition. In this case, we can envisage that the ‘slow’ reacting species effectively acts as a weak inhibitor relative to the ‘fast’ reacting species, thus presenting as apparent substrate inhibition.
(§4) It should be noted that the species reflected by the third exponential phase has a larger equilibrium constant than the faster reacting species, with a rate of reaction approximately 20-fold slower than the steady-state rate of the enzyme (Fig. S6 ^†). As it represents an insignificant component of the steady-state reaction, we have not analysed this phase any further.
as §1
(§5) Results were fitted using Graphpad Prism. […]

AbyU [5] = biological target: T1, AbyU; experiment: as above; format: biochemical, Micromonospora maris AB-18-032
Excerpt: as §2, §3, §4, §1, §5

[6] = burst phase 1, eqn (4), 20 °C, pH 7.5
[7] = burst phase 2, two-step binding, eqn (5), 20 °C, pH 7.5

C=C1OC(=O)C(C(=O)[C@H](C)C[C@H](C)C(=O)/C=C/C=C/C=C/C)=C1OC [compound 5]
kcat slower than the initial rate of kburst1 (AbyU [1]; ratio): around 230 times | kcat (AbyU [1]; steady-state, 20 °C, pH 7.5, 10% acetonitrile): 6.94 ± 0.30 min⁻¹ | k5 (cyclisation once substrate is bound) (AbyU [2]; 20 °C, pH 7.5): N.D. (very quick) | Kd (AbyU [2]; apparent binding constant, two-step route, read-out: Kapp = K2 × K4): 1300 nM | Kd (AbyU [2]; binding constant, ES2 conformation, read-out: K2 = k−2/k2): 1970 ± 4240 nM | Kd (AbyU [2]; binding constant, ES conformation, read-out: K1 = k−1/k1): 3860 ± 940 nM | k1 (kon, kburst1, substrate binding, one-step) (AbyU [2]; [6]): 0.88 ± 0.03 µM⁻¹ s⁻¹ | k−1 (koff, kburst1, substrate dissociation) (AbyU [2]; [6]): 3.4 ± 0.71 s⁻¹ and 3.41 ± 0.71 s⁻¹ | k2 (on rate, kburst2, sub-optimal conformation) (AbyU [2]; [7]): 0.36 ± 0.46 µM⁻¹ s⁻¹ | k4 (rearrangement within active site to most productive conformation) (AbyU [2]; [7]): 1.37 ± 2.38 s⁻¹ | k−2 (off rate, kburst2, sub-optimal conformation) (AbyU [2]; [7]): 0.71 ± 0.62 s⁻¹ | k−4 (AbyU [2]; burst phase 2, two-step binding, reverse rearrangement, 20 °C, pH 7.5): 0.90 ± 2.29 s⁻¹ | K4 (k−4/k4) (AbyU [2]; equilibrium constant of rearrangement): 0.66 ± 2.81 | kspont (spontaneous cyclisation of 5) [3]: 0.00125 ± 1.7e-05 µM⁻¹ s⁻¹ | Ki [4]: 54.9 ± 14.5 µM | k3 (AbyU [5]; binding in ES3 conformation (third phase), 20 °C, pH 7.5): ≈5.7 × 10^−4 ± 3.8 × 10^−5 μM^−1 s^−1 | k−3 (AbyU [5]; dissociation from ES3 conformation (third phase), 20 °C, pH 7.5): ≈6.9 × 10^−3 ± 1.9 × 10^−3 s^−1 | rate of third exponential phase slower than the steady-state rate of the enzyme (AbyU [5]; ratio): approximately 20 fold | Km (AbyU [5]; single turnover, 10 s, 20 °C, pH 7.5, 10% acetonitrile, eqn (2), read-out: Km from substrate inhibition fit of kobs2 vs [5] (approximation of binding affinity for faster-reacting conformation(s))): 13.2 ± 3.2 µM
